Data from US7666890B2, “Synthesis and herbicidal activity of 1- (2-substituted benzo[d]thiazol-5-yl)-1H-1,2,4-triazol-5(4H)-one derivatives” (Huazhong Normal University, priority 2007, dated 2010).
Read-outs that look alike come from different tables or passages of the source.

Assays:
Assay in all cases: Test of herbicidal activities (greenhouse pot method)
Assay type in all cases: in vivo
Amaranthus retroflexus = settings: for inhibition at 300 g/ha: Amaranthus retroflexus, 360 h, read-out: Herbicidal activity Amaranthus retroflexus (inhibition level)
Method: (§1) Garden soil was collected from regions where no pesticide is used and mixed uniformly with mountain soil and organic humus soil at a volume ratio of 1:1:1.
(§2) Multiple flowerpots each having a diameter of 9.5 cm and a depth of 8 cm were filled with the soil mixture to 3/4 volume. After water was added to the soil and the soil was completely wet, seeds of three grass weeds and three broadleaf weeds were inserted into the flowerpots (10-15 seeds for each weed). After seeding, the seeds were covered with fine oil mixed with sand and having a thickness of 1-3 cm. After the soil absorbed enough water and became saturated, excess water at the bottom of the flowerpot was drained, and the seeds were placed in a greenhouse for growth.
(§3) The weeds were watered every day so as to keep relative humidity of the soil at approximately 80%, growing temperature of 15-30° C., and air humidity above 50%. As the grass weeds grew to a 2-leaf stage and the broadleaf weeds was in a leaf period, spraying operation […] was performed on the stems and leafs. Planting before germination was performed before spraying. Soil processing was performed before the seeds of the weeds emerged.
(§4) Six target weeds comprising three grass weeds: Echinochloa crusgalli, Digiatria sanguinalis, Setaria viridis, along with three broadleaf weeds: Brassica juncea, Amaranthus retroflexus, Chenopodium album were treated before/after germination using a so-called “greenhouse pot” method with a single dose. A treating dose was 300 g ai./h. The process was repeated three times, and a blank control was used.
(§5) A 3WPSHZ-500 type automatic spraying tower with a spraying area of 0.132 m^2, a spray volume of 10 mL, working pressure of 0.2 MPa, and a liquid volume of 40% of maximum was used. After treatment, the weeds were placed in a greenhouse at a temperature of 15-30° C. Reaction symptoms of the weeds were regularly observed, and 15 days later, five reaction levels were determined according to the following inhibition intervals: 90≦A≦100%; 80≦B<90%, 60≦C<80%; 50≦D<60%, E<50%.

Setaria viridis = settings: for inhibition at 300 g/ha: Setaria viridis, 360 h, read-out: Herbicidal activity Setaria viridis (inhibition level)
Method: as §1, §2, §3, §4, §5

Chenopodium album = settings: for inhibition at 300 g/ha: Chenopodium album, 360 h, read-out: Herbicidal activity Chenopodium album (inhibition level)
Method: as §1, §2, §3, §4, §5

Echinochloa crusgalli = settings: for inhibition at 300 g/ha: Echinochloa crus-galli, 360 h, read-out: Herbicidal activity Echinochloa crusgalli (inhibition level)
Method: as §1, §2, §3, §4, §5

Brassica juncea = settings: for inhibition at 300 g/ha: Brassica juncea, 360 h, read-out: Herbicidal activity Brassica juncea (inhibition level)
Method: as §1, §2, §3, §4, §5

Digiatria sanguinalis = settings: for inhibition at 300 g/ha: 360 h, read-out: Herbicidal activity Digiatria sanguinalis (inhibition level)
Method: as §1, §2, §3, §4, §5

[1] = single dose 300 g ai./h, treated before/after germination, 15 days later, greenhouse pot

Row | Compound | Herbicidal activity Amaranthus retroflexus (inhibition level) (Amaranthus retroflexus; [1]) | Herbicidal activity Setaria viridis (inhibition level) (Setaria viridis; [1]) | Herbicidal activity Chenopodium album (inhibition level) (Chenopodium album; [1]) | Herbicidal activity Echinochloa crusgalli (inhibition level) (Echinochloa crusgalli; [1]) | Herbicidal activity Brassica juncea (inhibition level) (Brassica juncea; [1]) | Herbicidal activity Digiatria sanguinalis (inhibition level) (Digiatria sanguinalis; [1]) | also measured
1 | CCCC[S+]([O-])c1nc2cc(-n3nc(C)n(C(F)F)c3=O)c(F)cc2s1 (stereo not drawn) [Compound 120] | C (60 ≦ C < 80%) | B (80 ≦ B < 90%) | B (80 ≦ B < 90%) | D (50 ≦ D < 60%) | A (90 ≦ A ≦ 100%) | B (80 ≦ B < 90%) | –
2 | CCCS(=O)(=O)c1nc2cc(-n3nc(C)n(C)c3=O)c(F)cc2s1 [Compound 48, 1-(6-fluoro-2-(propylsulfonyl)benzo[d]thiazol-5-yl)-3,4-dimethyl-1H-1,2,4-triazol-5(4H)-one] | – | – | – | – | – | – | inhibition at 300 g/ha (Amaranthus retroflexus; [1]): 80 to 90%; inhibition at 300 g/ha (Setaria viridis; [1]): 60 to 80%; inhibition at 300 g/ha (Chenopodium album; [1]): 50 to 60%; inhibition at 300 g/ha (Echinochloa crusgalli; [1]): 80 to 90%; inhibition at 300 g/ha (Brassica juncea; [1]): 80 to 90%; inhibition at 300 g/ha (Digiatria sanguinalis; [1]): 80 to 90%
3 | Cc1nn(-c2cc3nc(SCc4ccc(F)cc4F)sc3cc2Cl)c(=O)n1C(F)F [Compound 8] | C (60 ≦ C < 80%) | C (60 ≦ C < 80%) | C (60 ≦ C < 80%) | E (E < 50%) | C (60 ≦ C < 80%) | B (80 ≦ B < 90%) | –
4 | CCOC(=O)C(C)Sc1nc2cc(-n3nc(C)n(C(F)F)c3=O)c(Br)cc2s1 (stereo not drawn) [Compound 87] | B (80 ≦ B < 90%) | A (90 ≦ A ≦ 100%) | B (80 ≦ B < 90%) | B (80 ≦ B < 90%) | A (90 ≦ A ≦ 100%) | B (80 ≦ B < 90%) | –
5 | Cc1nn(-c2cc3nc(SCc4ccccc4)sc3cc2F)c(=O)n1C [Compound 30] | A (90 ≦ A ≦ 100%) | B (80 ≦ B < 90%) | C (60 ≦ C < 80%) | E (E < 50%) | D (50 ≦ D < 60%) | B (80 ≦ B < 90%) | –
6 | Cc1nn(-c2cc3nc(SCc4cccc(F)c4)sc3cc2F)c(=O)n1C(F)F [Compound 19] | A (90 ≦ A ≦ 100%) | C (60 ≦ C < 80%) | A (90 ≦ A ≦ 100%) | E (E < 50%) | B (80 ≦ B < 90%) | B (80 ≦ B < 90%) | –
7 | CCOC(=O)CSc1nc2cc(-n3nc(C)n(C(F)F)c3=O)c(F)cc2s1 [Compound 93, Ethyl 1-{5-[4-difluoromethyl-3-methyl-5-oxo-4,5-dihydro-1,2,4-triazol-1-yl]-6-fluorobenzo[d]thiazol-2-ylthio}acetate] | – | – | – | – | – | – | inhibition at 300 g/ha (Amaranthus retroflexus): 90 to 100%; inhibition at 300 g/ha (Setaria viridis): 80 to 90%; inhibition at 300 g/ha (Chenopodium album): 90 to 100%; inhibition at 300 g/ha (Echinochloa crusgalli): 90 to 100%; inhibition at 300 g/ha (Brassica juncea): 90 to 100%; inhibition at 300 g/ha (Digiatria sanguinalis): 90 to 100%
8 | CCCSc1nc2cc(-n3nc(C)n(C(F)F)c3=O)c(Br)cc2s1 [Compound 81] | A (90 ≦ A ≦ 100%) | B (80 ≦ B < 90%) | B (80 ≦ B < 90%) | B (80 ≦ B < 90%) | A (90 ≦ A ≦ 100%) | D (50 ≦ D < 60%) | –
9 | Cc1nn(-c2cc3nc(S(=O)(=O)Cc4ccccc4)sc3cc2Cl)c(=O)n1C(F)F [Compound 37] | C (60 ≦ C < 80%) | E (E < 50%) | A (90 ≦ A ≦ 100%) | D (50 ≦ D < 60%) | D (50 ≦ D < 60%) | C (60 ≦ C < 80%) | –
10 | CCCCCCS(=O)(=O)c1nc2cc(-n3nc(C)n(C(F)F)c3=O)c(Cl)cc2s1 [Compound 57] | A (90 ≦ A ≦ 100%) | D (50 ≦ D < 60%) | C (60 ≦ C < 80%) | D (50 ≦ D < 60%) | B (80 ≦ B < 90%) | A (90 ≦ A ≦ 100%) | –
11 | Cc1ccccc1CSc1nc2cc(-n3nc(C)n(C(F)F)c3=O)c(F)cc2s1 [Compound 14] | B (80 ≦ B < 90%) | C (60 ≦ C < 80%) | C (60 ≦ C < 80%) | B (80 ≦ B < 90%) | A (90 ≦ A ≦ 100%) | C (60 ≦ C < 80%) | –
12 | CCSc1nc2cc(-n3nc(C)n(C(F)F)c3=O)c(Br)cc2s1 [Compound 80] | A (90 ≦ A ≦ 100%) | A (90 ≦ A ≦ 100%) | E (E < 50%) | A (90 ≦ A ≦ 100%) | A (90 ≦ A ≦ 100%) | B (80 ≦ B < 90%) | –
13 | Cc1nn(-c2cc3nc([S+](C)[O-])sc3cc2F)c(=O)n1C(F)F (stereo not drawn) [Compound 119] | B (80 ≦ B < 90%) | C (60 ≦ C < 80%) | B (80 ≦ B < 90%) | E (E < 50%) | E (E < 50%) | C (60 ≦ C < 80%) | –
14 | CCC[S+]([O-])c1nc2cc(-n3nc(C)n(C(F)F)c3=O)c(Br)cc2s1 (stereo not drawn) [Compound 110] | B (80 ≦ B < 90%) | C (60 ≦ C < 80%) | B (80 ≦ B < 90%) | A (90 ≦ A ≦ 100%) | B (80 ≦ B < 90%) | B (80 ≦ B < 90%) | –
15 | Cc1nn(-c2cc3nc(SCc4ccccc4Cl)sc3cc2F)c(=O)n1C(F)F [Compound 24] | A (90 ≦ A ≦ 100%) | D (50 ≦ D < 60%) | B (80 ≦ B < 90%) | C (60 ≦ C < 80%) | C (60 ≦ C < 80%) | B (80 ≦ B < 90%) | –
16 | Cc1nn(-c2cc3nc(S(=O)(=O)Cc4ccc(Cl)cc4)sc3cc2Cl)c(=O)n1C(F)F [Compound 41] | C (60 ≦ C < 80%) | C (60 ≦ C < 80%) | D (50 ≦ D < 60%) | D (50 ≦ D < 60%) | C (60 ≦ C < 80%) | B (80 ≦ B < 90%) | –
17 | CCSc1nc2cc(-n3nc(C)n(C(F)F)c3=O)c(Cl)cc2s1 [Compound 86] | A (90 ≦ A ≦ 100%) | A (90 ≦ A ≦ 100%) | B (80 ≦ B < 90%) | A (90 ≦ A ≦ 100%) | A (90 ≦ A ≦ 100%) | A (90 ≦ A ≦ 100%) | –
